We go through one substance from patent US20040126421A1, “Liposomal system and method of using same” (priority 2002, published 2004).

The subject of the assay is CD8+ T cells recognizing the ova peptide (SIINFEKL). Briefly: IFN-g ELISPOT of lymph node CD8+ T cells after vaccination. Type of assay: in vivo, C57BL/6 mice. How it is done: In order to test the potency of the Ubiquisome vaccine, the liposomes of example 1 were used as a vaccine. For vaccination, mice received a single administration of […] of liposomes containing 2.5 mg POPE and approximately […] peptide antigen. The vaccine was injected bilaterally in mouse tibealis anterior muscle ([…] per muscle).
For ELISPOT analysis, mice were sacrificed 5 days following vaccination and inguinal and popliteal lymph nodes were harvested. CD8+ T cells from lymph nodes were isolated using the MACS magnetic cell separation technique. 1×10^5 CD8+ T cells were plated per well in 96 well IP plates. Ova (SIINFEKL, Seq ID No. 3) or irrelevant peptide-pulsed EL4 lymphoma cells were irradiated and plated over CD8+ T cells at density of 10×10^4 cells/well. Following 20 h incubation and assay development, IFN-g secreting cells were visualized as brown spots on the IP membrane.

As to monophosphoryl Lipid A [MPL], the “CD8+ T cell response with increasing amounts of MPL in the bilayer” value was “proportionally stronger CD8+ T cell responses”.
